Data as given in ChEMBL document CHEMBL1909294, “Translating clinical findings into knowledge in drug safety evaluation--drug induced liver injury prediction system (DILIps)” (PLoS Comput Biol, 2011).

Columns and labels:
Hepatotoxicity [1] = tested on: Hepatotoxicity;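 for HepSE bilirubinemia: bilirubinemia hepatic side effect score drawn from the DILIps training data, a prediction system for drug-induced liver injury; call rule not given here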;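 for HepSE cholecystitis: Cholecystitis-related hepatic side effect score drawn from the DILIps (drug-induced liver injury prediction) training data set; call rule not given here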;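 for HepSE cholelithiasis: hepatic side effect score for cholelithiasis, drawn from the DILIps training data for predicting drug-induced liver injury; call rule not given here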;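 for HepSE cirrhosis: cirrhosis hepatic side effect score taken from the DILIps (drug-induced liver injury prediction) training set; call rule not given here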;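 for HepSE elevated liver function tests: hepatic side effect score for raised liver function tests, as recorded in the DILIps training set used for predicting drug-induced liver injury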; for HepSE hepatic failure: call rule not given here;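 for HepSE hepatomegaly: hepatic side effect score for hepatomegaly, taken from the training set of the DILIps drug-induced liver injury prediction system; call rule not given here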
Hepatotoxicity [2] = tested on: Hepatotoxicity; remark: listed apart in the source;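 for HepSE bilirubinemia: bilirubinemia hepatic side effect score drawn from the DILIps training data, a prediction system for drug-induced liver injury; call rule not given here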;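 for HepSE cholecystitis: Cholecystitis-related hepatic side effect score drawn from the DILIps (drug-induced liver injury prediction) training data set; call rule not given here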;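 for HepSE cholelithiasis: hepatic side effect score for cholelithiasis, drawn from the DILIps training data for predicting drug-induced liver injury; call rule not given here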;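 for HepSE cirrhosis: cirrhosis hepatic side effect score taken from the DILIps (drug-induced liver injury prediction) training set; call rule not given here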;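 for HepSE elevated liver function tests: hepatic side effect score for raised liver function tests, as recorded in the DILIps training set used for predicting drug-induced liver injury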; for HepSE hepatic failure: call rule not given here
Hepatotoxicity [3] = tested on: Hepatotoxicity; remark: listed apart in the source;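 for HepSE bilirubinemia: bilirubinemia hepatic side effect score drawn from the DILIps training data, a prediction system for drug-induced liver injury; call rule not given here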;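 for HepSE cholecystitis: Cholecystitis-related hepatic side effect score drawn from the DILIps (drug-induced liver injury prediction) training data set; call rule not given here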;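 for HepSE cholelithiasis: hepatic side effect score for cholelithiasis, drawn from the DILIps training data for predicting drug-induced liver injury; call rule not given here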;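 for HepSE cirrhosis: cirrhosis hepatic side effect score taken from the DILIps (drug-induced liver injury prediction) training set; call rule not given here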;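 for HepSE elevated liver function tests: hepatic side effect score for raised liver function tests, as recorded in the DILIps training set used for predicting drug-induced liver injury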; for HepSE hepatic failure: call rule not given here
Hepatotoxicity [4] = tested on: Hepatotoxicity; remark: listed apart in the source;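 for HepSE bilirubinemia: bilirubinemia hepatic side effect score drawn from the DILIps training data, a prediction system for drug-induced liver injury; call rule not given here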;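 for HepSE cholecystitis: Cholecystitis-related hepatic side effect score drawn from the DILIps (drug-induced liver injury prediction) training data set; call rule not given here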;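 for HepSE cholelithiasis: hepatic side effect score for cholelithiasis, drawn from the DILIps training data for predicting drug-induced liver injury; call rule not given here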;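 for HepSE cirrhosis: cirrhosis hepatic side effect score taken from the DILIps (drug-induced liver injury prediction) training set; call rule not given here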;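 for HepSE elevated liver function tests: hepatic side effect score for raised liver function tests, as recorded in the DILIps training set used for predicting drug-induced liver injury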; for HepSE hepatic failure: call rule not given here
Hepatotoxicity [5] = tested on: Hepatotoxicity; remark: listed apart in the source; for HepSE hepatic failure: call rule not given here
Hepatotoxicity [6] = tested on: Hepatotoxicity; remark: listed apart in the source; for HepSE hepatic failure: call rule not given here
Hepatotoxicity [7] = tested on: Hepatotoxicity; remark: listed apart in the source
Hepatotoxicity [8] = tested on: Hepatotoxicity; remark: listed apart in the source
Hepatotoxicity [9] = tested on: Hepatotoxicity; remark: listed apart in the source
Hepatotoxicity [10] = tested on: Hepatotoxicity; remark: listed apart in the source
Hepatotoxicity [11] = tested on: Hepatotoxicity; remark: listed apart in the source
Hepatotoxicity [12] = tested on: Hepatotoxicity; remark: listed apart in the source
Hepatotoxicity [13] = tested on: Hepatotoxicity; remark: listed apart in the source
Hepatotoxicity [14] = tested on: Hepatotoxicity; remark: listed apart in the source

Structure (SMILES) | HepSE_bilirubinemia (Hepatotoxicity [1]) | HepSE_cholecystitis (Hepatotoxicity [2]) | HepSE_cholelithiasis (Hepatotoxicity [3]) | HepSE_cirrhosis (Hepatotoxicity [4]) | HepSE_elevated liver function tests (Hepatotoxicity [5]) | HepSE_hepatic failure (Hepatotoxicity [6]) | HepSE_hepatic necrosis (Hepatotoxicity [7]) | HepSE_hepatitis (Hepatotoxicity [8]) | HepSE_hepatomegaly (Hepatotoxicity [9]) | HepSE_jaundice (Hepatotoxicity [10]) | HepSE_liver disease (Hepatotoxicity [11]) | HepSE_liver fatty (Hepatotoxicity [12]) | HepSE_liver function tests abnormal (Hepatotoxicity [13]) | HepSE_Combined Scores (Hepatotoxicity [14]) | also measured
CC(=O)N(O)CCCCCNC(=O)CCC(=O)N(O)CCCCCNC(=O)CCC(=O)N(O)CCCCCN [DEFEROXAMINE] | 0 | 0 | 0 | 0 | 0 | 0 | 0 | 0 | 0 | 0 | 0 | 0 | 0 | 0 | 
Cc1noc(NS(=O)(=O)c2ccc(N)cc2)c1C [SULFISOXAZOLE] | 0 | 0 | 0 | 0 | 0 | 0 | 0 | 1 | 0 | 1 | 0 | 0 | 0 | 2 | 
COc1ccccc1OCC(O)COC(N)=O (stereo not drawn) [METHOCARBAMOL] | 0 | 0 | 0 | 0 | 0 | 0 | 0 | 0 | 0 | 1 | 0 | 0 | 0 | 1 | 
CSCC[C@H](NC(=O)[C@H](Cc1ccc(OS(=O)(=O)O)cc1)NC(=O)[C@@H](N)CC(=O)O)C(=O)NCC(=O)N[C@@H](Cc1c[nH]c2ccccc12)C(=O)N[C@@H](CCSC)C(=O)N[C@@H](CC(=O)O)C(=O)N[C@@H](Cc1ccccc1)C(N)=O [SINCALIDE] | 0 | 0 | 0 | 0 | 0 | 0 | 0 | 0 | 0 | 0 | 0 | 0 | 0 | 0 | 
CCCN1C[C@H](CSC)C[C@@H]2c3cccc4[nH]cc(c34)C[C@H]21 [PERGOLIDE] | 0 | 1 | 1 | 0 | 0 | 0 | 0 | 1 | 1 | 1 | 0 | 0 | 1 | 6 | 
C[C@@H]1CN([C@H]2CC[C@](C#N)(c3ccc(F)cc3)CC2)CC[C@]1(C(=O)O)c1ccccc1 [LEVOCABASTINE] | 0 | 0 | 0 | 0 | 0 | 0 | 0 | 0 | 0 | 0 | 0 | 0 | 0 | 0 | 
COc1c2occc2cc2ccc(=O)oc12 [METHOXSALEN] | 0 | 0 | 0 | 0 | 0 | 0 | 0 | 0 | 0 | 0 | 0 | 0 | 0 | 0 | 
CC(C)(C)NC[C@H](O)COc1cccc2c1CCCC2=O [LEVOBUNOLOL] | 0 | 0 | 0 | 0 | 0 | 0 | 0 | 0 | 0 | 0 | 0 | 0 | 0 | 0 | 
COc1ccccc1OCCNCC(O)COc1cccc2[nH]c3ccccc3c12 (stereo not drawn) [CARVEDILOL] | 1 | 0 | 0 | 0 | 0 | 0 | 0 | 0 | 0 | 0 | 0 | 0 | 0 | 1 | 
O=c1[nH]c(=O)n([C@H]2C[C@H](O)[C@@H](CO)O2)cc1C(F)(F)F [TRIFLURIDINE] | 0 | 0 | 0 | 0 | 0 | 0 | 0 | 0 | 0 | 0 | 0 | 0 | 0 | 0 | 
Nc1nc(Cl)nc2c1ncn2[C@@H]1O[C@H](CO)[C@@H](O)[C@@H]1F [CLOFARABINE] | 1 | 0 | 0 | 0 | 0 | 0 | 0 | 0 | 1 | 1 | 0 | 0 | 0 | 3 | 
O=C1[C@H](CC[C@H](O)c2ccc(F)cc2)[C@@H](c2ccc(O)cc2)N1c1ccc(F)cc1 [EZETIMIBE] | 0 | 1 | 1 | 0 | 0 | 0 | 0 | 1 | 0 | 0 | 0 | 0 | 0 | 3 | 
O=C1CCc2ccc(OCCCCN3CCN(c4cccc(Cl)c4Cl)CC3)cc2N1 [ARIPIPRAZOLE] | 1 | 1 | 1 | 0 | 0 | 0 | 0 | 1 | 1 | 1 | 0 | 0 | 0 | 6 | 
NC1=NC(=O)C(c2ccccc2)O1 (stereo not drawn) [PEMOLINE] | 0 | 0 | 0 | 0 | 0 | 0 | 0 | 1 | 0 | 1 | 0 | 0 | 0 | 2 | 
C#C[C@]1(O)CC[C@H]2[C@@H]3CCC4=CC(=O)CC[C@@H]4[C@H]3CC[C@@]21CC [LEVONORGESTREL] |  |  |  |  |  |  |  |  |  |  |  |  |  |  | HepSE_bilirubinemia (Hepatotoxicity [1]; Liver): 0; HepSE_cholecystitis (Hepatotoxicity [2]; Liver): 0; HepSE_cholelithiasis (Hepatotoxicity [3]; Liver): 0; HepSE_cirrhosis (Hepatotoxicity [4]; Liver): 0; HepSE_elevated liver function tests (Hepatotoxicity [5]; Liver): 0; HepSE_hepatic failure (Hepatotoxicity [6]; Liver): 0; HepSE_hepatic necrosis (Hepatotoxicity [7]; Liver): 0; HepSE_hepatitis (Hepatotoxicity [8]; Liver): 0; HepSE_hepatomegaly (Hepatotoxicity [9]; Liver): 0; HepSE_jaundice (Hepatotoxicity [10]; Liver): 0; HepSE_liver disease (Hepatotoxicity [11]; Liver): 0; HepSE_liver fatty (Hepatotoxicity [12]; Liver): 0; HepSE_liver function tests abnormal (Hepatotoxicity [13]; Liver): 0; HepSE_Combined Scores (Hepatotoxicity [14]; Liver): 0
CC1(C)S[C@@H]2[C@H](NC(=O)[C@H](N)c3ccc(O)cc3)C(=O)N2[C@H]1C(=O)O [AMOXICILLIN] | 0 | 0 | 0 | 0 | 0 | 0 | 0 | 1 | 0 | 1 | 0 | 0 | 0 | 2 | 
NCCC(O)(P(=O)(O)O)P(=O)(O)O [PAMIDRONIC ACID] | 0 | 0 | 0 | 0 | 0 | 0 | 0 | 0 | 0 | 0 | 0 | 0 | 1 | 1 | 
